Data reported in patent US12227501B2, “3-amino-2-[2-(acylamino)pyridin-4-yl]-1,5,6,7-tetrahydro-4h-pyrrolo[3,2-c]pyridin-4-one as CSNK1 inhibitors” (Bayer Aktiengesellschaft, priority 2019, dated 2025).
Counter-ions that a name gives are not always drawn. Like-named read-outs stand apart in the source and are kept apart here.

Key:
Format in all cases: biochemical
human CSNK1D = human CSNK1D (Homo sapiens (Human), UniProt P48730); experiment: CSNK1D Assay (ADP-Glo, 1 μM ATP); conditions: read-out: CSNK1D IC50 [mol/l] (median)
Chain of human CSNK1D (P48730 whole entry): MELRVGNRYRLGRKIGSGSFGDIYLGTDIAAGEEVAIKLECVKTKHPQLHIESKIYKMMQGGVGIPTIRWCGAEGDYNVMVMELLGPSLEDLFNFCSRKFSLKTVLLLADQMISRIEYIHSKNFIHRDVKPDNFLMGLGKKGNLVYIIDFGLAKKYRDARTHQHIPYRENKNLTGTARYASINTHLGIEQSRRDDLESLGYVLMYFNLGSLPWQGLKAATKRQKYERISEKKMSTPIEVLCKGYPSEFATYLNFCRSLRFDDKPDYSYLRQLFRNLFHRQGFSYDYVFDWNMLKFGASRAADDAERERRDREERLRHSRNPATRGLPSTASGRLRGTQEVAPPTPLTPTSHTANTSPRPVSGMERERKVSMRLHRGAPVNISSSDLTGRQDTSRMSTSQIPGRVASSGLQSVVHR
How it was run: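 GST-tagged full-length human CSNK1D from baculovirus-infected insect cells, typically ~0.5 ng/μL, with biotinylated peptide substrate and 1 μM ATP in HEPES pH 7.5 buffer. Compound is preincubated with enzyme 15 min at 22 °C. ADP formed is quantified by ADP-Glo luminescence.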

human CSNK1A1 [1] = molecular target: T1, human CSNK1A1 (Homo sapiens (Human), UniProt P48729); experiment: CSNK1A1 High ATP Assay (ADP-Glo, 1 mM ATP); conditions: read-out: CSNK1A1 high ATP assay IC50 [mol/l] (median)
T1 sequence (P48729 whole entry): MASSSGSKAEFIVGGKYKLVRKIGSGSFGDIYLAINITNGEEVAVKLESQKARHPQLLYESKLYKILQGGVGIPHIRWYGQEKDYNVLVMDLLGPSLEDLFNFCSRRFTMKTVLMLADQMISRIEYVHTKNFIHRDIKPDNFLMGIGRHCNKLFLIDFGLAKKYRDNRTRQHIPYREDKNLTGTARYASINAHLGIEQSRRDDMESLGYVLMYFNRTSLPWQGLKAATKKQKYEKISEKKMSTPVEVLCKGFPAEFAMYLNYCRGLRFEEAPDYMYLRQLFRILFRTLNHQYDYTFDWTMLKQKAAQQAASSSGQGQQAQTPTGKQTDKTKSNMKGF
How it was run: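 GST-tagged full-length human CSNK1A1 from baculovirus-infected insect cells (typically about 0.4 ng/μL), pre-incubated with compound 15 min at 22 °C. Reaction with biotinylated peptide biotin-Ahx-KRRRAL-pS-VASLPGL at 1 mM ATP. ADP formed read by ADP-Glo luminescence.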

[2] = molecular target: wild-type Epidermal Growth Factor Receptor (EGFR) (Homo sapiens (Human), UniProt P00533); experiment: WT-EGFR Kinase Assay (TR-FRET, 2 mM ATP)
Chain of wild-type Epidermal Growth Factor Receptor (EGFR) (P00533 669-1210): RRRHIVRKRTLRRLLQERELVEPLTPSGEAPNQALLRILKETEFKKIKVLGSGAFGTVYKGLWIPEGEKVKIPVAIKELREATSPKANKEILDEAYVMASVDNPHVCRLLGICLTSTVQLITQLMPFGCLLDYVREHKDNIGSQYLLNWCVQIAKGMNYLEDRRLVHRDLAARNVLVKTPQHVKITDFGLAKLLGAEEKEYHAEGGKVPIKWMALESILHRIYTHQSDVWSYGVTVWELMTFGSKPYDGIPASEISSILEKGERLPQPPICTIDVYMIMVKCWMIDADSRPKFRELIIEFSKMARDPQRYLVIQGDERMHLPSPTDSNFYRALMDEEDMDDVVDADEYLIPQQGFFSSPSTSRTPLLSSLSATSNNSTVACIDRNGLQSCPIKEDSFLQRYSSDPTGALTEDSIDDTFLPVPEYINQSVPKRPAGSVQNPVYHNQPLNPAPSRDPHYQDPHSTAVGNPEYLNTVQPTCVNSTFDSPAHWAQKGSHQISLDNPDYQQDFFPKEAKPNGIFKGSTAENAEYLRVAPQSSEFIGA

human CSNK1A1 [3] = molecular target: T1, human CSNK1A1; experiment: CSNK1A1 Assay 2 (ADP-Glo, 1 μM ATP); conditions: substrate biotin-Ahx-KRRRAL-pS-VASLPGL, read-out: CSNK1A1 Assay 2 IC50 [mol/l] (median)
How it was run: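 Full-length human CSNK1A1 as an N-terminal GST fusion (baculovirus/insect cells) with biotinylated peptide substrate biotin-Ahx-KRRRAL-pS-VASLPGL and 1 μM ATP, in HEPES pH 7.5 buffer. Compounds were pre-incubated with enzyme (~0.0375 ng/μL) for 15 min at 22 °C. Generated ADP was read by ADP-Glo luminescence as the activity measure.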

[4] = read-out: EGFR Wildtyp- 2 mM ATP IC50 [mol/l] (median)
[5] = EGFR Wildtyp- 2 mM ATP IC50 [mol/l] (median)

Structure (SMILES): CN1CCc2[nH]c(-c3ccnc(NC(=O)Cc4cccc(S(C)(=O)=O)c4)c3)c(Nc3ccccc3)c2C1=O [Example 69, N-[4-(3-anilino-5-methyl-4-oxo-4,5,6,7-tetrahydro-1H-pyrrolo[3,2-c]pyridin-2-yl)pyridin-2-yl]-2-[3-(methanesulfonyl)phenyl]acetamide]
- IC50 (human CSNK1D): 4.68 nM
- IC50 (human CSNK1A1 [1]): 81.7 nM
- IC50 [2, 4]: 510 nM
- IC50 (human CSNK1A1 [3]): 3.13 nM

Structure (SMILES): COCCN1CCc2[nH]c(-c3ccnc(NC(=O)Cc4ccc(F)cc4)c3)c(Nc3ccccc3)c2C1=O [Example 53, N-{4-[3-anilino-5-(2-methoxyethyl)-4-oxo-4,5,6,7-tetrahydro-1H-pyrrolo[3,2-c]pyridin-2-yl]pyridin-2-yl}-2-(4-fluorophenyl)acetamide]
- IC50 (human CSNK1D): 15 nM
- IC50 (human CSNK1A1 [1]): 907 nM
- IC50 [2, 4]: 6030 nM
- IC50 (human CSNK1A1 [3]): 9.68 nM

Structure (SMILES): CC1(C)Cc2[nH]c(-c3ccnc(NC(=O)C(CC(F)F)c4ccc(F)cc4)c3)c(Nc3cccc(F)n3)c2C(=O)N1 (racemic) [Example 128, 4,4-difluoro-2-(4-fluorophenyl)-N-(4-{3-[(6-fluoropyridin-2-yl)amino]-6,6-dimethyl-4-oxo-4,5,6,7-tetrahydro-1H-pyrrolo[3,2-c]pyridin-2-yl}pyridin-2-yl)butanamide (Racemate)]
- IC50 (human CSNK1D): 11.4 nM
- IC50 (human CSNK1A1 [1]): 31.4 nM
- IC50 [2, 5]: > 20000 nM
- IC50 (human CSNK1A1 [3]): 7.16 nM

Structure (SMILES): CN1CCc2[nH]c(-c3ccnc(NC(=O)Cc4ccc(F)cc4)c3)c(Nc3cccc(F)c3F)c2C1=O [Example 154, N-{4-[3-(2,3-difluoroanilino)-5-methyl-4-oxo-4,5,6,7-tetrahydro-1H-pyrrolo[3,2-c]pyridin-2-yl]pyridin-2-yl}-2-(4-fluorophenyl)acetamide formamide salt]
- IC50 (human CSNK1D): 4.45 nM
- IC50 (human CSNK1A1 [1]): 119 nM
- IC50 [2, 4]: > 20000 nM
- IC50 (human CSNK1A1 [3]): 3.33 nM

Structure (SMILES): CC1(C)Cc2[nH]c(-c3ccnc(NC(=O)C(CC(F)F)c4ccc(F)cc4)c3)c(Nc3cccc(F)c3Cl)c2C(=O)N1 (single isomer, unassigned; (-)) [Example 110, (−)-N-{4-[3-(2-chloro-3-fluoroanilino)-6,6-dimethyl-4-oxo-4,5,6,7-tetrahydro-1H-pyrrolo[3,2-c]pyridin-2-yl]pyridin-2-yl}-4,4-difluoro-2-(4-fluorophenyl)butanamide]
- IC50 (human CSNK1D): 249 nM
- IC50 (human CSNK1A1 [1]): > 20000 nM
- IC50 [2, 5]: 4130 nM
- IC50 (human CSNK1A1 [3]): 262 nM

Structure (SMILES): O=C1NC2(CC2)Cc2[nH]c(-c3ccnc(NC(=O)C(CC(F)F)c4ccc(F)cc4)c3)c(Nc3ccccc3)c21 (single isomer, unassigned; enantiomer 2) [Example 149, N-[4-(3′-anilino-4′-oxo-1′,4′,5′,7′-tetrahydrospiro[cyclopropane-1,6′-pyrrolo[3,2-c]pyridin]-2′-yl)pyridin-2-yl]-4,4-difluoro-2-(4-fluorophenyl)butanamide (Enantiomer 2)]
- IC50 (human CSNK1D): 39.4 nM
- IC50 (human CSNK1A1 [1]): 473 nM
- IC50 [2, 5]: 16700 nM
- IC50 (human CSNK1A1 [3]): 40.4 nM

Structure (SMILES): CC1(C)Cc2[nH]c(-c3ccnc(NC(=O)C(CN)c4ccc(F)cc4)c3)c(Nc3ccccc3)c2C(=O)N1 (single isomer, unassigned; enantiomer 2) [Example 141, 3-amino-N-[4-(3-anilino-6,6-dimethyl-4-oxo-4,5,6,7-tetrahydro-1H-pyrrolo[3,2-c]pyridin-2-yl)pyridin-2-yl]-2-(4-fluorophenyl)propanamide (Enantiomer 2)]
- IC50 (human CSNK1D): 127 nM
- IC50 (human CSNK1A1 [1]): 599 nM
- IC50 [2, 4]: > 20000 nM
- IC50 (human CSNK1A1 [3]): 57.8 nM

Structure (SMILES): CCC(C(=O)Nc1cc(-c2[nH]c3c(c2Nc2ccccc2)C(=O)N(C)CC3)ccn1)c1ccc(F)cc1 (single isomer, unassigned; (-)) [Example 76, (−)-N-[4-(3-anilino-5-methyl-4-oxo-4,5,6,7-tetrahydro-1H-pyrrolo[3,2-c]pyridin-2-yl)pyridin-2-yl]-2-(4-fluorophenyl)butanamide]
- IC50 (human CSNK1D): 17.5 nM
- IC50 (human CSNK1A1 [1]): 506 nM
- IC50 [2, 5]: > 20000 nM
- IC50 (human CSNK1A1 [3]): 14.4 nM
